# Reference: ChEMBL document CHEMBL1128111, “Synthesis and biological activity of a series of 4-aryl substituted benz[b]azepines: Antagonists at the strychnine-insensitive glycine site” (Bioorg Med Chem Lett, 1995)
# Calls of active or inactive are those of the source. The calls are words filed in the database; no cut-off is given here.
# Legend:
# [1] = target: T1, Glutamate NMDA receptor (Rattus norvegicus) (UniProt P35439+Q00959+Q00960+Q00961+Q62645+Q8VHN2+Q9R1M7); assay: The compound was tested in vivo for its effect on the NMDA receptor complex following administration by iv infusion in red nucleus assay; Inactive; format: organism-based
# [2] = target: T1, Glutamate NMDA receptor (Rattus norvegicus); assay: The compound was tested in vivo for its effect on the NMDA receptor complex following administration by iv infusion in red nucleus assay; format: organism-based; design: unit not given here
Activity [1],Activity [2],SMILES
inactive,,O=c1[nH]c2cc(Cl)ccc2c(O)c(-c2cccnc2)c1=O
,9.4,O=c1[nH]c2cc(Cl)ccc2c(O)c(-c2ccccc2)c1=O
,9.9,COc1ccc(-c2c(O)c(=O)[nH]c3cc(Cl)ccc3c2=O)cc1
,5.6,O=c1[nH]c2cc(Cl)ccc2c(O)c(-c2cccs2)c1=O
,2.8,COc1cccnc1-c1c(O)c(=O)[nH]c2cc(Cl)ccc2c1=O
,5,O=c1[nH]c2cc(Cl)ccc2c(O)c(-c2ccco2)c1=O
,1.7,O=c1[nH]c2cc(Cl)ccc2c(O)c(-c2ccccn2)c1=O
